US4499083A, “3-O-Demethyl derivatives of the istamycin B series of compounds” (Zaidan Hojin Biseibutsu Kagaku Kenkyu Kai, priority 1980, dated 1985)
Converted amounts (≈) assume the structure as drawn. Where two headings read alike, the source gives them in different places.

Columns and labels:
[1] = tested on: Staphylococcus aureus FDA 209P; experiment: Antibacterial spectrum, MIC by serial dilution on nutrient agar; format: cell-based; details: FDA209P, 37° C., 17 hours, read-out: Minimum inhibitory concentration
[2] = tested on: Staphylococcus aureus Smith; experiment: as above; format: cell-based; details: read-out: Minimum inhibitory concentration
[3] = tested on: Sarcina lutea PCI 1001; experiment: as above; format: cell-based; details: Micrococcus luteus, PCI1001, 37° C., 17 hours, read-out: Minimum inhibitory concentration
[4] = tested on: Bacillus subtilis PCI 219; experiment: as above; format: cell-based; details: read-out: Minimum inhibitory concentration
[5] = tested on: Mycobacterium smegmatis ATCC 607; experiment: as above; format: cell-based; details: Mycolicibacterium smegmatis, read-out: Minimum inhibitory concentration
[6] = tested on: Escherichia coli K-12 J5R11-2; experiment: as above; format: cell-based; details: read-out: Minimum inhibitory concentration
[7] = tested on: Escherichia coli K-12 ML1410; experiment: as above; format: cell-based; details: read-out: Minimum inhibitory concentration
[8] = tested on: Escherichia coli K-12 LA290 R64; experiment: as above; format: cell-based; details: K12LA290R64, 17 h, read-out: Minimum inhibitory concentration
[9] = tested on: Shigella dysenteriae JS11910; experiment: as above; format: cell-based; details: JS11910, 17 h, read-out: Minimum inhibitory concentration
[10] = tested on: Salmonella enteritidis 1891; experiment: as above; format: cell-based; details: Salmonella enterica, 37° C., 17 hours, read-out: Minimum inhibitory concentration
[11] = tested on: Proteus rettgeri GN311; experiment: as above; format: cell-based; details: Providencia rettgeri, 37° C., 17 hours, read-out: Minimum inhibitory concentration
[12] = tested on: Providencia sp. Pv16; experiment: as above; format: cell-based; details: 37° C., 17 hours, read-out: Minimum inhibitory concentration
[13] = tested on: Pseudomonas aeruginosa No. 12; experiment: as above; format: cell-based; details: 37° C., 17 hours, read-out: Minimum inhibitory concentration
[14] = tested on: Pseudomonas aeruginosa H9; experiment: as above; format: cell-based; details: 37° C., 17 hours, read-out: Minimum inhibitory concentration
[15] = tested on: Pseudomonas aeruginosa TI-13; experiment: as above; format: cell-based; details: TI13, 37° C., 17 hours, read-out: Minimum inhibitory concentration
[16] = tested on: Pseudomonas aeruginosa 99; experiment: as above; format: cell-based; details: 37° C., 17 hours, read-out: Minimum inhibitory concentration
[17] = tested on: Pseudomonas aeruginosa 21-75; experiment: as above; format: cell-based; details: 2175, 37° C., 17 hours, read-out: Minimum inhibitory concentration
[18] = tested on: Pseudomonas aeruginosa ROS 134/PU21; experiment: as above; format: cell-based; details: ROS134/PU21, 17 h, read-out: Minimum inhibitory concentration
[19] = tested on: Pseudomonas aeruginosa K-Ps 102; experiment: as above; format: cell-based; details: read-out: Minimum inhibitory concentration
[20] = tested on: Gram-negative and Gram-positive bacteria; experiment: Antibacterial activity, overall statement; format: cell-based
Experimental: The antibacterial spectra of 3-O-demethylistamycin B.sesquicarbonate and 3-O-demethyl-2"-N-formimidoylistamycin B.disulphate.trihydrate are shown in Table 2, along with that of istamycin B for comparison purposes.
*^1 Determined according to a standard serial dilution method on
nutrient agar plates which were incubated at 37° C. for 17 hours.

[21] = in vivo; details: mouse, iv
[22] = tested on: mice; experiment: Acute toxicity by intravenous injection in mice
[23] = tested on: Pseudomonas aeruginosa; experiment: Antibacterial activity against Pseudomonas aeruginosa; format: cell-based
[24] = tested on: resistant bacteria; experiment: Antibacterial activity against resistant bacteria; format: cell-based
[25] = tested on: Gram-negative and Gram-positive bacteria; details: relative to istamycin A; earlier work; cited from earlier work
[26] = Staphylococcus aureus Smith, nutrient agar, 37° C., 17 hours
[27] = PCI219, Bacillus subtilis PCI 219, nutrient agar, 37° C., 17 hours
[28] = ATCC607, Mycobacterium smegmatis ATCC 607, nutrient agar, 37° C., 17 hours
[29] = K12J5R112, Escherichia coli K-12 J5R11-2, nutrient agar, 37° C., 17 hours
[30] = Escherichia coli, K12ML1410, 17 h
[31] = KPS102, Pseudomonas aeruginosa K-Ps 102, nutrient agar, 37° C., 17 hours
[32] = listed as 3-O-demethylistamycin B

CNCC1CCC(N)C(OC2C(N)CC(O)C(N(C)C(=O)CNC=N)C2O)O1 (centres unmarked) [3-O-Demethyl-2"-N-formimidoylistamycin B]
MIC [1]: 0.2 µg/mL (≈ 0.497 µM) | MIC [2, 26]: < 0.2 µg/mL | MIC [3]: < 0.2 µg/mL | MIC [4, 27]: < 0.2 µg/mL | MIC [5, 28]: < 0.2 µg/mL | MIC [6, 29]: 1.56 µg/mL (≈ 3.88 µM) | MIC [7, 30]: 3.13 µg/mL (≈ 7.78 µM) | MIC [8]: 1.56 µg/mL (≈ 3.88 µM) | MIC [9]: 3.13 µg/mL (≈ 7.78 µM) | MIC [10]: 1.56 µg/mL (≈ 3.88 µM) | MIC [11]: 12.5 µg/mL (≈ 31.1 µM) | MIC [12]: 25 µg/mL (≈ 62.1 µM) | MIC [13]: 12.5 µg/mL (≈ 31.1 µM) | MIC [14]: 12.5 µg/mL (≈ 31.1 µM) | MIC [15]: 6.25 µg/mL (≈ 15.5 µM) | MIC [16]: 100 µg/mL (≈ 248 µM) | MIC [17]: 25 µg/mL (≈ 62.1 µM) | MIC [18]: 50 µg/mL (≈ 124 µM) | MIC [19, 31]: 12.5 µg/mL (≈ 31.1 µM) | antibacterial activity (in words) [20]: high antibacterial activity against a wide variety of Gram-negative and Gram-positive bacteria | MTD [21]: 160 mg/kg | toxicity (in words) [22]: low toxicity to animals

CNCC1CCC(N)C(OC2C(N)CC(O)C(N(C)C(=O)CN)C2O)O1 (centres unmarked) [3-O-Demethylistamycin B]
MIC [1]: 0.39 µg/mL (≈ 1.04 µM) | MIC ([2]; Staphylococcus aureus, 17 h): < 0.2 µg/mL | MIC [3]: 0.39 µg/mL (≈ 1.04 µM) | MIC ([4]; Bacillus subtilis, PCI219, 17 h): < 0.2 µg/mL | MIC ([5]; ATCC607, 17 h): < 0.2 µg/mL | MIC ([6]; Escherichia coli, K12J5R112, 17 h): 1.56 µg/mL (≈ 4.15 µM) | MIC ([7]; K12ML1410, Escherichia coli K-12 ML1410, nutrient agar, 37° C., 17 hours): 3.13 µg/mL (≈ 8.34 µM) | MIC [8]: 3.13 µg/mL (≈ 8.34 µM) | MIC [9]: 6.25 µg/mL (≈ 16.6 µM) | MIC [10]: 3.13 µg/mL (≈ 8.34 µM) | MIC [11]: 12.5 µg/mL (≈ 33.3 µM) | MIC [12]: 25 µg/mL (≈ 66.6 µM) | MIC [13]: 12.5 µg/mL (≈ 33.3 µM) | MIC [14]: 25 µg/mL (≈ 66.6 µM) | MIC [15]: 12.5 µg/mL (≈ 33.3 µM) | MIC [16]: 25 µg/mL (≈ 66.6 µM) | MIC [17]: 50 µg/mL (≈ 133 µM) | MIC [18]: 50 µg/mL (≈ 133 µM) | MIC ([19]; Pseudomonas aeruginosa, KPS102, 17 h): 6.25 µg/mL (≈ 16.6 µM) | antibacterial activity (in words) [20]: high antibacterial activity | antibacterial activity (in words) [20, 32]: high antibacterial activity against a wide variety of Gram-negative and Gram-positive bacteria | effectiveness against Pseudomonas aeruginosa (in words) [23]: effective against not only Pseudomonas aeruginosa | effectiveness against a variety of resistant bacteria (in words) [24]: effective against not only Pseudomonas aeruginosa but also a variety of resistant bacteria | MTD [21]: 160 mg/kg | toxicity (in words) [22]: low toxicity to animals | toxicity (in words) [22, 32]: low toxicity

CNCC1CCC(N)C(OC2C(N)CC(OC)C(N(C)C(=O)CN)C2O)O1 (centres unmarked) [Istamycin B, istamycin B]
MIC [1]: 0.39 µg/mL (≈ 1 µM) | MIC [2, 26]: < 0.2 µg/mL | MIC [3]: 0.2 µg/mL (≈ 0.513 µM) | MIC [4, 27]: < 0.2 µg/mL | MIC [5, 28]: 0.78 µg/mL (≈ 2 µM) | MIC [6, 29]: 1.56 µg/mL (≈ 4.01 µM) | MIC [7, 30]: 3.13 µg/mL (≈ 8.04 µM) | MIC [8]: 1.56 µg/mL (≈ 4.01 µM) | MIC [9]: 3.13 µg/mL (≈ 8.04 µM) | MIC [10]: 1.56 µg/mL (≈ 4.01 µM) | MIC [11]: 12.5 µg/mL (≈ 32.1 µM) | MIC [12]: 6.25 µg/mL (≈ 16 µM) | MIC [13]: 100 µg/mL (≈ 257 µM) | MIC [14]: 50 µg/mL (≈ 128 µM) | MIC [15]: 25 µg/mL (≈ 64.2 µM) | MIC [16]: > 100 µg/mL | MIC [17]: 100 µg/mL (≈ 257 µM) | MIC [18]: > 100 µg/mL | MIC [19, 31]: 50 µg/mL (≈ 128 µM) | antibacterial activity compared with istamycin A [25]: higher antibacterial activity than istamycin A
